Legend:
[1] = target: T1, myosin light chain kinase (MLCK) (Gallus gallus, UniProt P11799); test: Calcium-Calmodulin Independent Myosin Light Chain Kinase (MLCK) Assay; format: biochemical, chicken; details: for IC50: calmodulin-independent MLCK (trypsin digested, chicken gizzard), peptide KKRPQRATSNVFS-NH2 50 μM, 100 uM ATP, pH 7.2; for inhibition at 100 µM: 100 μM compound, calmodulin-independent MLCK, printed in the IC50 (μM) column, read-out: percent inhibition at a dosage of 100 μM
T1 construct: Calmodulin-independent myosin light chain kinase(CIM) of greater than 95 percent homogeneity is prepared by trypsin digestion of calmodulin-dependent MLCK; from tissue; host or cells: chicken gizzard (purified from tissue, then digested with TPCK-treated trypsin)
Method: A. Enzyme Preparation. Calmodulin-independent myosin light chain kinase(CIM) of greater than 95 percent homogeneity is prepared by trypsin digestion of calmodulin-dependent MLCK which is prepared from chicken gizzard by the method of Ngai, P. J., Carruthers, C. A. and Walsh, M. P. (1984), Biochem. J. 218, pages 863-870, through the step employing diethylaminoethyl(DEAE)-Sephacel®, trademark of Pharmacia Fine Chemicals, Inc., New Market, N.J. 08854. The kinase solution containing 8.5 mg protein is adjusted to 0.5 mg/ml in 20 mM Tris/HCl, pH 7.5, 2 mM EGTA. An aliquot of 1 mg/ml of N-tosyl-L-phenylalanine-chloromethyl ketone (TPCK) treated trypsin is added to a final trypsin:MLCK ratio of 1:7.5 (mg/mg protein). Typically, the reaction is incubated for 6 minutes at 25° C.
MLCK is assayed using the synthetic peptide substrate KKRPQRATSNVFS-NH2, a thirteen amino acid fragment with a sequence corresponding to residues 11-23 of gizzard light chain except for a carboxy-terminal serine-NH2 as described in Kemp, G. E., Pearson, R. B. and House, C. (1983) Proc. Nat. Acad. Sci. U.S.A. 80, pages 7471-7475. The standard assay is performed in a total volume of 100 microliters (μl) containing 20 mM Tris-HCl, pH 7.2, 10 mM MgCl2, 100 uM [γ-^32 P] ATP with a specific activity of 300-1000 counts per minute (cpm) per picomole (pmol), 50 μM KKRPQRATSNVFS-NH2, 0.02 μg enzyme. Calmodulin was added at the concentrations indicated in the text and tables, and assays contained 1 mM EGTA or 1 mM EGTA plus approximately 200 μM excess free calcium when calcium-dependent activity was measured. Calcium-independent activity is negligible in the calcium dependent gizzard enzyme. Assays are initiated by addition of adenosine triphosphate (ATP) and stopped by addition of 200 μM HCl. Phosphate incorporated into the basic substrate is measured by spotting an aliquot on phosphocellulose filter paper, washing and counting the papers. The results are given in IC50 values. An IC50 indicates the dosage of compound in micromoles (μM) which inhibits MLCK by 50 percent. […] Results given in percentages (%) indicates the percent inhibition at a dosage of 100 μM.

[2] = system: conscious spontaneously hypertensive rats (SHR); test: Antihypertensive Activity in Rats (conscious spontaneously hypertensive rats, SHR); format: in vivo, rat; details: for Change in blood pressure (mean change in mean blood pressure): male SHR, placebo -5
From the text: The ability of the compounds of the present invention to lower blood pressure can be assessed in conscious spontaneously hypertensive rats (SHR). SHR (males) are purchased from Taconic Farms, Germantown, N.Y. and are approximately 16-17 weeks old when used to test the pharmacological effects. Rats, under ether anesthesia, receive a polyethylene tubing (PE50 fused to PE10) inserted via the caudal artery into the abdominal aorta to just below the renal arteries. This catheter is connected to a Spectromed pressure transducer and the direct arterial blood pressure is continuously recorded on an oscillographic recorder. Heart rate is determined via manual count of the pressure waves at a fast paper trace. […] If drugs are administered orally, compounds are suspended in 0.4% aqueous methylcellulose and delivered via oral gavage with an oral feeding needle. Rats are fasted overnight prior to intravenous or oral tests. All incisions are closed and the rats are placed into plexiglass restrainers where they quickly regain consciousness. At least 90 minutes are allowed for the rats to fully regain consciousness and achieve stable blood pressures and heart rates.
Intravenously administered drugs are usually given as a rapid bolus. […] In some cases drugs are given by constant intravenous infusion. The 0.4% aqueous methylcellulose is used as a placebo treatment for compounds given orally. Values are presented as the mean changes in mean blood pressure (MBP) in millimeters of mercury (mm Hg). Drug induced changes are compared with the changes in an appropriate placebo group. The compound is administered intravenously at a dosage of 1.0 to 5.0 milligrams per kilogram (mpk) body weight. The following results are representative for 1-((7-bromo-9H-fluoren-2-yl)sulfonyl)hexahydro-1H-1,4-diazepine from examples 4 and 27 (Compound A): […]

T1 sequence (P11799 1217-1713 limits assumed): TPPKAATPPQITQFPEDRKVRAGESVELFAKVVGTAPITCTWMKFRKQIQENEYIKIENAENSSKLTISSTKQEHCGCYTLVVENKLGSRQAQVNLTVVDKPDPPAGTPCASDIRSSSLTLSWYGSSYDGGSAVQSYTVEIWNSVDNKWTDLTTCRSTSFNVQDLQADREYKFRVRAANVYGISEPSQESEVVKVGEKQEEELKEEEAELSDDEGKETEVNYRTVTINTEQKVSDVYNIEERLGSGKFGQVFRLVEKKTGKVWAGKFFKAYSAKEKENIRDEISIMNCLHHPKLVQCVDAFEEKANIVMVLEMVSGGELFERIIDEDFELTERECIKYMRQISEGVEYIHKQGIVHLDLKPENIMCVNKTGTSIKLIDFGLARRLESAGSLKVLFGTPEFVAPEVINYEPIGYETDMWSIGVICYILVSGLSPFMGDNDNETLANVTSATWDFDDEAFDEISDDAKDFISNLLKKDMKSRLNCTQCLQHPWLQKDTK

Structure (SMILES)	IC50 [1]	also measured
O=S(=O)(c1ccc2c(Br)cc3ccccc3c2c1)N1CCCNCC1 [Example 20]	10 µM	–
O=S(=O)(c1c2ccccc2cc2ccccc12)N1CCCNCC1 [Example 25]	5 µM	–
N=C(N)N1CCCN(S(=O)(=O)c2ccc3c(c2)Cc2cc(Br)ccc2-3)CC1 [Example 28]	–	inhibition at 100 µM [1]: 55%
O=S(=O)(c1cccc2c1cnc1ccccc12)N1CCCNCC1 [Example 24]	35 µM	–
O=S(=O)(c1ccc2c(c1)Cc1cc(Br)ccc1-2)N1CCCNCC1 [Compound A, 1-((7-bromo-9H-fluoren-2-yl)sulfonyl)hexahydro-1H-1,4-diazepine]	76 µM	Change in blood pressure (mean change in mean blood pressure) ([2]; intravenous, 1.0 mpk): -13 mm Hg; reduction in blood pressure upon intravenous administration ([2]; intravenous, 1.0 to 5.0 mpk, SHR): dose-dependent reduction in blood pressure; Change in blood pressure (mean change in mean blood pressure) ([2]; intravenous, 2.5 mpk): -25 mm Hg; magnitude of the effect at the highest dose compared with the placebo ([2]; intravenous, 5.0 mpk, SHR, compared with placebo): marked reduction; Change in blood pressure (mean change in mean blood pressure) ([2]; intravenous, 5.0 mpk): -30 mm Hg; activity upon oral administration ([2]; oral, 50 mpk, SHR): does not show activity
O=S(=O)(c1ccc2c(cnc3ccccc32)c1)N1CCCNCC1 [Example 23]	65 µM	–
O=S(=O)(c1cc2ccccc2c2ccccc12)N1CCCNCC1 [Example 26]	3.5 µM	–
O=S(=O)(c1ccc2c(ccc3ccccc32)c1)N1CCCNCC1 [Example 19]	11 µM	–
O=S(=O)(c1ccc2cc3ccccc3cc2c1)N1CCCNCC1 [Example 17]	50 µM	–
O=S(=O)(c1cccc2cc3ccccc3cc12)N1CCCNCC1 [Example 16]	17 µM	–
O=S(=O)(c1ccc2ncc3ccccc3c2c1)N1CCCNCC1 [Example 22]	32 µM	–
O=S(=O)(c1cc2ccccc2c2ccccc12)N1CCCNCC1 [Example 18]	4.8 µM	–
CC1(C)c2cc(Br)ccc2-c2ccc(S(=O)(=O)N3CCCNCC3)cc21 [Example 29]	–	inhibition at 100 µM [1]: 40%
O=S(=O)(c1cccc2nc3ccccc3cc12)N1CCCNCC1 [Example 21]	100 µM	–

— US5030631A, “Tricylclic arylsulfonamides” (Schering Corporation, priority 1989, dated 1991)
